Tested on: YAP-TEAD
Assay: TEAD inhibition, Hippo Pathway TEAD Reporter MCF-7 luciferase assay
Format: cell-based
Conditions: Homo sapiens, MCF7, 24 h, Hippo Pathway TEAD Reporter MCF-7 cells, luciferase activity after 24 h; read-out: IC50 of the test compounds on YAP-TEAD inhibition (Group)
Procedure: TEAD inhibition was assayed using Hippo Pathway TEAD Reporter—MCF-7 cell line (BPS Bioscience, Catalog #: 60618) which contains firefly luciferase gene under the control of TEAD responsive elements. In the cell line, YAP1 remains in the nucleus inducing constitutive expression of luciferase reporter. Amount of expressed luciferase was detected using ONE-Glo Luciferase Assay System (Promega) and measuring plates with Enspire Multimode Plate Reader (PerkinElmer).
Hippo Pathway TEAD Reporter—MCF-7 cells were plated on white/clear Poly-D-Lysine coated 384 plates (Corning #356660) at the density of 8500 cells/well. Next day test compounds (11 concentrations with 4 replicates) and DMSO control (0.1%) were added to the plate. After 24 h cells were lysed and luciferase activity was measured. The half maximal inhibitory concentration (IC50) of the test compounds on YAP-TEAD inhibition was determined.

| SMILES | IC50 [nM] |
| --- | --- |
| O=C1CCC(C(=O)Nc2cc(Oc3ccc(C(F)(F)F)cc3)cc3c2OCCO3)N1 (stereo not drawn) [Compound 66, 5-Oxo-N-(7-(4-(trifluoromethyl)phenoxy)-2,3-dihydrobenzo[b][1,4]dioxin-5-yl)pyrrolidine-2-carboxamide] | < 50 |
| CN1C(=O)CCC1C(=O)Nc1cc(Oc2ccc(C(F)(F)F)cc2)cc2c1OCCO2 (stereo not drawn) [Compound 67, 1-Methyl-5-oxo-N-(7-(4-(trifluoromethyl)phenoxy)-2,3-dihydrobenzo[b][1,4]-dioxin-5-yl)pyrrolidine-2-carboxamide] | < 50 |
| CCN1C(=O)CCC1C(=O)Nc1cc(Oc2ccc(C(F)(F)F)cc2)ccc1OC (stereo not drawn) [Compound 68, 1-Ethyl-N-(2-methoxy-5-(4-(trifluoromethyl)phenoxy)phenyl)-5-oxopyrrolidine-2-carboxamide] | < 50 |
| COc1ccc(Oc2ccc(C(F)(F)F)cc2)cc1NC(=O)[C@H]1CCC(=O)N1C [Compound 69, (R)—N-(2-Methoxy-5-(4-(trifluoromethyl)phenoxy)phenyl)-1-methyl-5-oxo-pyrrolidine-2-carboxamide] | < 50 |
| COc1ccc(Oc2ccc(C(F)(F)F)cc2)cc1NC(=O)[C@@H]1CCC(=O)N1C [Compound 70, (S)—N-(2-Methoxy-5-(4-(trifluoromethyl)phenoxy)phenyl)-1-methyl-5-oxo-pyrrolidine-2-carboxamide] | < 50 |
| COc1ccc(Oc2ccc(C(F)(F)F)cc2)cc1NC(=O)C1CS(=O)(=O)N1C (stereo not drawn) [Compound 71, N-(2-Methoxy-5-(4-(trifluoromethyl)phenoxy)phenyl)-2-methyl-1,2-thiazeti-dine-3-carboxamide 1,1-dioxide] | 50 to 300 |
| COc1ccc(Oc2cccc(C(F)(F)F)c2)cc1NC(=O)C1CS(=O)(=O)N1C (stereo not drawn) [Compound 72, N-(2-Methoxy-5-(3-(trifluoromethyl)phenoxy)phenyl)-2-methyl-1,2-thiaze-tidine-3-carboxamide 1,1-dioxide] | 301 to 2000 |
| COc1cc(F)c(COc2cccc(F)c2)cc1NC(=O)C1CCC(=O)N1 (stereo not drawn) [Compound 73, N-(4-Fluoro-5-((3-fluorophenoxy)methyl)-2-methoxyphenyl)-5-oxopyrrolidine-2-carboxamide] | 50 to 300 |
| COc1ccc(Nc2ccc(C(F)(F)F)cc2)cc1NC(=O)C1CCC(=O)N1C (stereo not drawn) [Compound 74, N-(2-Methoxy-5-((4-(trifluoromethyl)phenyl)amino)phenyl)-1-methyl-5-oxo-pyrrolidine-2-carboxamide] | 50 to 300 |
| CN1C(=O)CCC1C(=O)Nc1cc(Oc2ccc(C(F)(F)F)cc2)ccc1F (stereo not drawn) [Compound 75, N-(2-Fluoro-5-(4-(trifluoromethyl)phenoxy)phenyl)-1-methyl-5-oxopyrrolidine-2-carboxamide] | < 50 |
| O=C1CCC(C(=O)Nc2cc(Oc3ccc(C(F)(F)F)cc3)ccc2F)N1 (stereo not drawn) [Compound 76, N-(2-Fluoro-5-(4-(trifluoromethyl)phenoxy)phenyl)-5-oxopyrrolidine-2-carboxamide] | < 50 |
| COc1ccc(Oc2cc(F)cc(F)c2)cc1NC(=O)C1CCC(=O)N1C(C)=O (stereo not drawn) [Compound 77, 1-Acetyl-N-(5-(3,5-difluorophenoxy)-2-methoxyphenyl)-5-oxopyrrolidine-2-carboxamide] | 50 to 300 |
| COc1ccc(Oc2cc(F)cc(F)c2)cc1NC(=O)C1CCC(=O)N1C (stereo not drawn) [Compound 78, N-(5-(3,5-Difluorophenoxy)-2-methoxyphenyl)-1-methyl-5-oxopyrrolidine-2-carboxamide] | 50 to 300 |
| COc1ccc(Oc2cc(F)ccc2F)cc1NC(=O)C1CCC(=O)N1 (stereo not drawn) [Compound 79, N-(5-(2,5-Difluorophenoxy)-2-methoxyphenyl)-5-oxopyrrolidine-2-carboxamide] | 301 to 2000 |
| O=C1CCC2(C(=O)Nc3cc(Oc4ccc(C(F)(F)F)cc4)cc4c3OCCO4)CCCN12 (stereo not drawn) [Compound 80, 3-Oxo-N-(7-(4-(trifluoromethyl)phenoxy)-2,3-dihydrobenzo[b][1,4]dioxin-5-yl)tetrahydro-1H-pyrrolizine-7a(5H)-carboxamide] | 50 to 300 |

Source: patent US20240246908A1 (ORION CORPORATION, priority 2021, published 2024)
